According to patent publication US12410152B2, “Oxazole and thioazole-type cullin ring ubiquitin ligase compounds and uses thereof” (Proxygen GmbH, priority 2019, dated 2025):

Experiments:
KBM7 CUL4Bmut cells = assay: cells; format: cell-based
Description: (§1) KBM7 cells with the specified genetic backgrounds were grown in IMDM supplemented with 10% FBS and 1% penicillin/streptomycin (pen/strep). AsPC1, HCT116, NCI-H446 and 293T cells were grown in DMEM 10% FBS and 1% pen/strep. MV4; 11, Jurkat and Be (2) C cells were grown in RPMI 10% FBS 1% pen/strep. KBM7, AsPC1 and HCT116 cells expressing Cas9 were generated using the plasmid Lenti_Cas9_Blasti (Addgene #52962). The lentiviral plasmid lentiGuide-Puro (Addgene #52963) was used to express sgRNAs against the genes UBE2M (in KBM7-Cas9, AsPC1-Cas9 and HCT116-Cas9 cells), UBE2G1 (in KBM7-Cas9 cells) and […] (in KBM7-Cas9 cells). The lentiviral plasmid lentiGuide-Puro-IRES-mCherry (modified from Addgene #52963) was used to express sgRNAs against CUL4A (in KBM7-Cas9 cells). The lentiviral plasmid pLenti-PGK-Hygro-DEST-UBE2M was generated by Gateway cloning (empty destination vector Addgene #19066), and used to generate UBE2M^resc KBM7 cells. […]
(§2) Finally, a total of structurally similar analogs was tested to unravel structure-activity relationship of the identified molecules. To that end, their anti-cancer activity was assayed in WT cells, as well as KBM7 cells deficient in genes identified in the genome-wide CRISPR screens (UBE2M, CUL4B, UBE2G1). Moreover, the compounds were also tested in AsPC1 pancreatic cancer cells (WT or UBE2Mmut), MV4; 11 and Jurkat leukemia cells, Be (2) C neuroblastoma cells, and NCI-H446 lung cancer cells (Table 3 at the end of this document)
(§3) KBM7^WT, mutant KBM7 clones (UBE2M^mut, UBE2M^resc, UBE2G1^mut CUL4A^mut, CUL4B^mut), and 3-day doxycycline pretreated KBM7^iCas9_sgDDB1 cells were seeded at a cell density of 50,000 cells/mL in 96-well plates with DMSO or drug, in triplicates. Drugs used: IC020772.1/IC020772.1X, IC021313.2/IC021313.2X, T6938051/T6938051X or THZ531. Cells were treated for 3 days, after which cell viability was assessed according to manufacturer's protocol (CellTiter Glo, Promega G7570). Survival curves and EC50 values were calculated by best-fit analysis of the log 10 drug concentration to fold change of drug-treated cells over DMSO-treated cells. All survival assays included technical triplicates per sample, per experiment.

KBM7 UBE2G1mut cells = assay: cells; format: cell-based
Description: as §1, §2, §3

SMILES | CC50 (KBM7 CUL4Bmut cells) [µM] | CC50 (KBM7 UBE2G1mut cells) [µM]
Cc1ccc(C(=O)N2CSCC2C(=O)N=c2[nH]cc(C)s2)o1 (stereo not drawn) [Compound T6938051] | 110 | 3.47
O=C(CSc1nnc2c(n1)[nH]c1ccccc12)Nc1ccc(Cl)cn1 [IC020772.1] | 7.53 | 2
O=C(CSc1nc2ccccc2[nH]1)Nc1ccc(Cl)cn1 [IC021313.2] | 15.7 | 4.34
